Data published in patent US8299048B2, “Hexahydrocyclopentyl[f]indazole sulfonamides and derivatives thereof as selective glucocorticoid receptor modulators” (Merck Sharp & Dohme Corp., priority 2008, dated 2012).

Columns and labels:
human GR [1] = biological target: T1, human GR (Homo sapiens, UniProt P04150); test: Transrepression Assay (GITAR), TNFα-β-lactamase reporter in U937 cells; assay type: cell-based; parameters: U937 cells contain an endogenous glucocorticoid receptor (GR); endogenous in cells; host or cells: U937 cells stably transfected with the TNF-alpha promoter/beta-lactamase reporter; conditions: for GITAR > GRAMM % SEP: GITAR Emax minus GRAMMER Emax; for EC50: U937 cells, inflection point, read-out: Transrepression U937 Cells GITAR IP
T1 sequence (P04150 1-777): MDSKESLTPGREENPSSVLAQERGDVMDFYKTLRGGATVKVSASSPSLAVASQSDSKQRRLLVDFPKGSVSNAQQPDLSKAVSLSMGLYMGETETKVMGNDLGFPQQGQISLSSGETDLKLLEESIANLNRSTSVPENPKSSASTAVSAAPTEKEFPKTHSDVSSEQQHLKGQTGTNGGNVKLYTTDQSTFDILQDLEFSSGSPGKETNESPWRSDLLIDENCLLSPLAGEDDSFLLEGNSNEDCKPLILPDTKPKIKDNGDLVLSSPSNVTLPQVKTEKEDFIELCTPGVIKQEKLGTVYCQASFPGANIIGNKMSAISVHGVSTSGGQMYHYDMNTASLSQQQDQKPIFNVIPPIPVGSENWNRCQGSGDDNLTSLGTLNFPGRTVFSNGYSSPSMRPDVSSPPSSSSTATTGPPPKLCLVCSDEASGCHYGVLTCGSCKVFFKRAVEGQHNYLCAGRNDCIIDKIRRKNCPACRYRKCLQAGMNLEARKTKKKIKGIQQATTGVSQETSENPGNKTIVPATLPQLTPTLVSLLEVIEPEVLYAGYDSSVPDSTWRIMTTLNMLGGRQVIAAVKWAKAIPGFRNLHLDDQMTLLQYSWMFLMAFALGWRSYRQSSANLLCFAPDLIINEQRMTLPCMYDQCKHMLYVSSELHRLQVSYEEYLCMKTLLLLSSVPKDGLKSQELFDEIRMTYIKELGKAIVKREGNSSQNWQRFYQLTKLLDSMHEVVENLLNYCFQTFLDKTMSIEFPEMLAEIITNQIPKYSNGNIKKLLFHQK
Procedure, shortened: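 Stable TNF-α-promoter/β-lactamase U937 line, endogenous GR; 50,000 cells/well. Cmpd 30–45 min 37 °C → PMA 5 ng/ml + LPS 100 ng/ml final, 37 °C ~18 hr → CCF2-AM 70–90 min RT. 100 nM dex = 100%.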

human GR [2] = biological target: T1, human GR; test: Trans-Activation Modulation of Glucocorticoid Receptor (GRAMMER), MMTV-LUC reporter, agonist mode; assay type: cell-based; parameters: endogenous in cells; conditions: for Emax: A549, A549 cells, maximum activity, read-out: Transactivation A549 Cells GRAMMER Emax; for EC50: A549 cells, inflection point, read-out: Transactivation A549 Cells GRAMMER IP
Procedure, shortened: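 Readout is luciferase from a modified MMTV LTR promoter after 24 h compound exposure alongside 10 nM dexamethasone (100% activity reference), DMSO ≤1%.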

[3] = U-937, U937 cells, maximum activity, read-out: Transrepression U937 Cells GITAR Emax
[4] = U-937, activity repressed by 100 nM dexamethasone alone set as 100%, read-out: maximal activity in the transrepression (GITAR) assay

Compound	GITAR > GRAMM % SEP (human GR [1]) [%]	EC50 (human GR [1]) [nM]	Emax (human GR [1]; [3]) [%]	Emax (human GR [1]; [4]) [%]	Emax (human GR [2]) [%]	EC50 (human GR [2]) [nM]
C[C@@H](O)CN(C[C@H]1CCC2=Cc3c(cnn3-c3ccc(F)cc3)C[C@@]21C)S(=O)(=O)c1ccc(F)c(Cl)c1 [Example 115, 3-chloro-4-fluoro-N-{[(4αR,5S)-1-(4-fluorophenyl)-4α-methyl-1,4,4α,5,6,7-hexahydrocyclopenta[f]indazol-5-yl]methyl}-N-[(2R)-2-hydroxypropyl]benzenesulfonamide]	31.2	643	57.4	> 5	26.1	786
CCCS(=O)(=O)N(CCc1ccccn1)C[C@H]1CCC2=Cc3c(cnn3-c3ccc(F)cc3)C[C@@]21C [Example 151, N-{[(4αR,5S)-1-(4-fluorophenyl)-4α-methyl-1,4,4α,5,6,7-hexahydrocyclopenta[f]indazol-5-yl]methyl}-N-(2-pyridin-2-ylethyl)propane-1-sulfonamide]	7.2	551	83.3	> 5	76	421
C[C@]12Cc3cnn(-c4ccc(F)cc4)c3C=C1CC[C@@H]2CN(CCc1ccccc1O)S(=O)(=O)Cc1cccc(C(F)(F)F)c1 [Example 122, N-{[(4αR,5S)-1-(4-fluorophenyl)-4α-methyl-1,4,4α,5,6,7-hexahydrocyclopenta[f]indazol-5-yl]methyl}-N-[2-(2-hydroxyphenyl)ethyl]-1-[3-(trifluoromethyl)phenyl]methanesulfonamide]	30.8	417	39.7	> 5	8.9	502
Cc1nn(C)c(Cl)c1S(=O)(=O)N(CC1CC1)C[C@H]1CCC2=Cc3c(cnn3-c3ccc(F)cc3)C[C@@]21C [Example 7]	19.7	389	56	> 5	36.3	351
C[C@H](O)CN(C[C@H]1CCC2=Cc3c(cnn3-c3ccc(F)cc3)C[C@@]21C)S(=O)(=O)c1ccc(F)c(Cl)c1 [Example 112, 3-chloro-4-fluoro-N-{[(4αR,5S)-1-(4-fluorophenyl)-4α-methyl-1,4,4α,5,6,7-hexahydrocyclopenta[f]indazol-5-yl]methyl}-N-[(2S)-2-hydroxypropyl]benzenesulfonamide]	32.3	337	65.7	> 5	33.4	423
COc1ccccc1CCN(C[C@H]1CCC2=Cc3c(cnn3-c3ccc(F)cc3)C[C@@]21C)S(=O)(=O)Cc1cccnc1 [Example 125, N-{[(4αR,5S)-1-(4-fluorophenyl)-4α-methyl-1,4,4α,5,6,7-hexahydrocyclopenta[f]indazol-5-yl]methyl}-N-[2-(2-methoxyphenyl)ethyl]-1-pyridin-3-ylmethanesulfonamide]	34.1	575	55.3	> 5	21.2	508
Cc1noc(C)c1S(=O)(=O)NC[C@H]1CCC2=Cc3c(cnn3-c3ccc(F)cc3)C[C@@]21C [Example 161, N-{[(4αR,5S)-1-(4-fluorophenyl)-4α-methyl-1,4,4α,5,6,7-hexahydrocyclopenta[f]indazol-5-yl]methyl}-3,5-dimethylisoxazole-4-sulfonamide]	26.7	930	45	> 5	18.3	419
Cn1cc(S(=O)(=O)N(CCc2ccccc2F)C[C@H]2CCC3=Cc4c(cnn4-c4ccc(F)cc4)C[C@@]32C)c(C(F)(F)F)n1 [Example 98, N-[2-(2-fluorophenyl)ethyl]-N-{[(4αR,5S)-1-(4-fluorophenyl)-4α-methyl-1,4,4α,5,6,7-hexahydrocyclopenta[f]indazol-5-yl]methyl}-1-methyl-3-(trifluoromethyl)-1H-pyrazole-4-sulfonamide]	13.2	64.3	89.9	> 5	76.7	239

Next, values leading:

GITAR > GRAMM % SEP (human GR [1]) [%]	EC50 (human GR [1]) [nM]	Emax (human GR [1]; [3]) [%]	Emax (human GR [1]; [4]) [%]	Emax (human GR [2]) [%]	EC50 (human GR [2]) [nM]	Compound
15.1	202	83	> 5	67.9	232	COc1ccc(CCN(C[C@H]2CCC3=Cc4c(cnn4-c4ccc(F)cc4)C[C@@]32C)S(=O)(=O)CC(F)(F)F)cc1 [Example 127, 2,2,2-trifluoro-N-{[(4αR,5S)-1-(4-fluorophenyl)-4α-methyl-1,4,4α,5,6,7-hexahydrocyclopenta[f]indazol-5-yl]methyl}-N-[2-(4-methoxyphenyl)ethyl]ethanesulfonamide]
14.0	324	87.6	> 5	73.6	143	C[C@]12Cc3cnn(-c4ccccc4)c3C=C1CC[C@@H]2CN(CCc1ccccc1F)S(=O)(=O)CC(F)(F)F [Example 137, 2,2,2-trifluoro-N-[2-(2-fluorophenyl)ethyl]-N-{[(4αR,5S)-4α-methyl-1-phenyl-1,4,4α,5,6,7-hexahydrocyclopenta[f]indazol-5-yl]methyl}ethanesulfonamide]
37.0	190	91.1	> 5	54.1	209	CC(C1CCC2=Cc3c(cnn3-c3ccc(F)cc3)C[C@@]21C)N(CC1CC1)S(=O)(=O)CC(F)(F)F (stereo partly drawn) [Example 109, N-(cyclopropylmethyl)-2,2,2-trifluoro-N-{1-[(4αR)-1-(4-fluorophenyl)-4α-methyl-1,4,4α,5,6,7-hexahydrocyclopenta[f]indazol-5-yl]ethyl}ethanesulfonamide]
18.2	77.8	91.5	> 5	73.2	110	COc1ccccc1CCN(C[C@H]1CCC2=Cc3c(cnn3-c3ccc(F)cc3)C[C@@]21C)S(=O)(=O)CC(F)(F)F [Example 120, 2,2,2-trifluoro-N-{[(4αR,5S)-1-(4-fluorophenyl)-4α-methyl-1,4,4α,5,6,7-hexahydrocyclopenta[f]indazol-5-yl]methyl}-N-[2-(2-methoxyphenyl)ethyl]ethanesulfonamide]
5.6	433	83.7	> 5	78.1	203	C[C@]12Cc3cnn(-c4ccccc4)c3C=C1CC[C@@H]2CN(CCc1ccccn1)S(=O)(=O)CC(F)(F)F [Example 138, 2,2,2-trifluoro-N-{[(4αR,5S)-4α-methyl-1-phenyl-1,4,4α,5,6,7-hexahydrocyclopenta[f]indazol-5-yl]methyl}-N-(2-pyridin-2-ylethyl)ethanesulfonamide]
18.2	148	98.5	> 5	80.3	161	C[C@@H](CN(C[C@H]1CCC2=Cc3c(cnn3-c3ccc(F)cc3)C[C@@]21C)S(=O)(=O)CC(F)(F)F)OS(=O)(=O)CC(F)(F)F [Example 114, (1S)-2-{{[(4αR,5S)-1-(4-fluorophenyl)-4α-methyl-1,4,4α,5,6,7-hexahydrocyclopenta[f]indazol-5-yl]methyl}[(2,2,2-trifluoroethyl)sulfonyl]amino}-1-methylethyl 2,2,2-trifluoroethanesulfonate]
2.2	49	85.9	> 5	83.8	48.9	COCCN(C[C@H]1CCC2=Cc3c(cnn3-c3ccc(F)cc3)C[C@@]21C)S(=O)(=O)CC(F)(F)F [Example 97, 2,2,2-trifluoro-N-{[(4αR,5S)-1-(4-fluorophenyl)-4α-methyl-1,4,4α,5,6,7-hexahydrocyclopenta[f]indazol-5-yl]methyl}-N-(2-methoxyethyl)ethanesulfonamide]
